Read-outs that look alike come from different tables or passages of the source.
Assays:
H358 = assay: Non Small Cell Lung Cancer proliferation assay (Alamar Blue reduction), H358; assay type: cell-based; details: Homo sapiens, read-out: Dose Response (uM) H358
Description: (§1) These cells have a doubling time of 1-2 days. All cell types are adherent and grow in colonies. The cells should be kept at a density between 50,000 cells/mL -500,000 cells/mL to provide for optimum growth and adequate nutrition. The cell line should be maintained at 37° C. in a humidified atmosphere with 5% CO2 in a sterile cell culture incubator.
(§2) Non Small Cell Lung Cancer Proliferation Assay.
(§3) High Controls for this assay are made by treating Non Small Cell Lung Cancer cells with 5 ul of 10% DMSO. [Final concentration in this assay is 1% DMSO].
(§4) Important Note: All compounds for testing in this assay should be done at the final concentration of 1% DMSO.
(§5) After addition, the cells are placed in cell culture incubator at 37° C. for 48 hours for complete treatment.
(§6) After drug treatment, cytotoxicity is measured by Alamar Blue reduction.
(§7) The cells are incubated for 48 hours at 37° C. to complete the Alamar Blue reduction.
(§8) The final step in the assay is to measure the amount of Alamar Blue reduction. […] The Alamar Blue fluorescence is measured at an excitation of 530 nm and emission of 590 nm.
(§9) For the NSCLC project, the cell based assay was screened against a small molecule library of approximately 200,000 compounds. The compound library is stored in our automated robotic freezer (Biophile) at −20° C. in 100% DMSO. Compound freeze and thaw cycles are kept to a minimum. […] This assay was performed on a fully automated linear track robotic platform (CRS F3 Robot System, Thermo Electron Corp., Ontario, Canada) utilizing several integrated peripherals for plate handling, liquid dispensing, and readout detection. […] The microplates are then placed at 37° C. for 48 hours to complete treatment of cells with compounds. Next, 5 ul of alamar blue was added using a liquid dispenser (Flexprop Precision Dispenser, Perkin Elmer, Mass., USA) and incubated for 48 hours at 37° C. The alamar blue prompt fluorescence was measured on Victor V (Victor^3 V, Perkin Elmer, Mass., USA) and output data files were loaded into ORIS (Oncology Research Informatics System, MSKCC, NY, USA), a screening data acquisition and analysis platform.
(§10) The dose response studies were done with the following standard procedure. First, the cells were counted and dispensed at 250 cells/well into 384-well microplates with compound. The cells were incubated for 48 hours at 37 C to complete treatment, and then alamar blue was added for an additional 48 hours. Finally, alamar blue reduction was measured and the data was loaded into ORIS, our data screening acquisition platform.

H1650 = assay: Non Small Cell Lung Cancer proliferation assay (Alamar Blue reduction), H1650; assay type: cell-based, human; details: Homo sapiens, NCI-H1650, dose response 10 M to 5 nM; IC50; read-out: Dose Response (uM) H1650
Outline: (§11)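 Human NSCLC cells were seeded at 250 cells/well with compound at a final 1% DMSO and treated for 48 hours at 37° C. 1% DMSO served as the high control.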

in vitro = details: human
Description: NHBE (normal human bronchiolar epithelial cells) are primary cells obtained from donor lungs and commercially available from Cambrex. The HPL1D (human peripheral lung epithelial) cell line has been immortalized with the SV40 large T-antigen. WI-38: human lung fibroblast cell line. HPLID, NHBE and WI-38 cells will serve as controls in the chemical screens. WT: wildtype; WT*: over-expressed wildtype.
Compounds were tested in dose response studies from […] to 5 nM against several non small cell lung cancer lines: H358, H827, H1118, H1650, H1734, H1975, H2030, and H3255, and were also studied in a 72 hour cytotoxicity assay against the NHBE and WI-38 cell lines.

H2030 = assay: Non Small Cell Lung Cancer proliferation assay (Alamar Blue reduction), H2030; assay type: cell-based, human; details: Homo sapiens, NCI-H2030, dose response 10 M to 5 nM; IC50; read-out: Dose Response (uM) H2030
Outline: as §11

H1975 = assay: Non Small Cell Lung Cancer proliferation assay (Alamar Blue reduction), H1975; assay type: cell-based, human; details: Homo sapiens, NCI-H1975, dose response 10 M to 5 nM; IC50; read-out: Dose Response (uM) H1975
Outline: as §11

H3255 = assay: Non Small Cell Lung Cancer proliferation assay (Alamar Blue reduction), H3255; assay type: cell-based, human; details: Homo sapiens, NCI-H3255, dose response 10 M to 5 nM; IC50; read-out: Dose Response (uM) H3255
Outline: as §11

H1734 = assay: Non Small Cell Lung Cancer proliferation assay (Alamar Blue reduction), H1734; assay type: cell-based, human; details: Homo sapiens, read-out: Dose Response (uM) H1734
Description: as §1, §2, §3, §4, §5, §6, §7, §8, §9, §10

H1118 = assay: Non Small Cell Lung Cancer proliferation assay (Alamar Blue reduction), H1118; assay type: cell-based; details: Homo sapiens; read-out: Dose Response (uM) H1118
Description: (§12) Non Small Cell Lung Cancer Proliferation Assay. To perform the assay, the Non Small Cell Lung Cancer lines are diluted in media and plated into 384 well microplates at a final density of 250 cells in […]. To ensure consistency and minimal pipetting error, the cells are plated using the Multidrop 384 with the following settings: Rocker Switch set at 384, Volume 45 and Column 24.
(§13) Low Controls for this assay are made by treating Non Small Cell Lung Cancer cells with 5 ul of staurosporine at 250 uM in 10% DMSO and 1% SDS. [Final concentration in this assay is 25 uM staurosporine in 1% DMSO and 0.1% SDS.]
as §3
(§14) The remaining wells of the 384 microplate may be treated with different compounds depending on the study. Important Note: All compounds for testing in this assay should be done at the final concentration of 1% DMSO.
as §5
(§15) After drug treatment, cytotoxicity is measured by Alamar Blue reduction. 5 μL of Alamar Blue is added to the 384 microplates using the Flexdrop.
as §7, §8
(§16) For the NSCLC project, the cell based assay was screened against a small molecule library of approximately 200,000 compounds. The compound library is stored in our automated robotic freezer (Biophile) at −20° C. in 100% DMSO. Compound freeze and thaw cycles are kept to a minimum. Compounds for use are diluted into the appropriate concentration and plated into 384 well microplates using our custom built low volume 384-well head tool (TPS 384, Apricot Designs Inc., CA, USA). This assay was performed on a fully automated linear track robotic platform (CRS F3 Robot System, Thermo Electron Corp., Ontario, Canada) utilizing several integrated peripherals for plate handling, liquid dispensing, and readout detection. First, non-small cell lung cancer cell lines are dispensed into 384 well microplates (Corning #3712 Tissue Culture Treated Plate, Corning, N.Y., USA) with 5 μL of test compounds at 100 uM in 10% DMSO for screening studies or […] in 10% DMSO to 50 nM in 10% DMSO for dose response studies. The microplates are then placed at 37° C. for 48 hours to complete treatment of cells with compounds. Next, 5 ul of alamar blue was added using a liquid dispenser (Flexprop Precision Dispenser, Perkin Elmer, Mass., USA) and incubated for 48 hours at 37° C. The alamar blue prompt fluorescence was measured on Victor V (Victor^3 V, Perkin Elmer, Mass., USA) and output data files were loaded into ORIS (Oncology Research Informatics System, MSKCC, NY, USA), a screening data acquisition and analysis platform.
as §10

H827 = assay: Non Small Cell Lung Cancer proliferation assay (Alamar Blue reduction), H827; assay type: cell-based; details: Homo sapiens; read-out: Dose Response (uM) H827
Description: […] are grown and maintained in Corning 175 cm2 flasks in RPMI 1640 media supplemented with 10% FBS, 1% antibiotic solution, 1% additional glutamine and pyruvate. These cells have a doubling time of 1-2 days. All cell types are adherent and grow in colonies. The cells should be kept at a density between 50,000 cells/mL -500,000 cells/mL to provide for optimum growth and adequate nutrition. The cell line should be maintained at 37° C. in a humidified atmosphere with 5% CO2 in a sterile cell culture incubator.
as §12, §13, §3, §14, §5, §15, §7, §8, §16

Structure (SMILES) | IC50 (H358; NCI-H358) [µM] | IC50 (H1650) [µM] | IC50 at 72 h (in vitro; CytoTox (uM) NHBE) [µM] | IC50 at 72 h (in vitro; CytoTox (uM) WI-38) [µM] | IC50 (H2030) [µM] | IC50 (H1975) [µM] | IC50 (H3255) [µM] | IC50 (H1734; NCI-H1734) [µM] | IC50 (H1118) [µM] | IC50 (H827) [µM] | IC50 (H358; NCI-H358, dose response 10 M to 5 nM, IC50) [µM] | IC50 (H1734; NCI-H1734, dose response 10 M to 5 nM, IC50) [µM]
O=c1c(Cl)c(Cl)cnn1-c1c(Cl)cc(C(F)(F)F)cc1Cl [compound 267059] | > 10 | > 10 | > 10 | > 10 | > 10 | > 10 | > 10 | > 10 | – | – | – | –
CN/N=C1\C=NN(c2ccc(C)cc2)C(=O)C1Cl (centres unmarked) [compound 257025] | > 10 | > 10 | > 10 | > 10 | > 10 | > 10 | > 10 | > 10 | > 10 | > 10 | – | –
Cc1cccc(-n2ncc(N=[N+]=[N-])c(Cl)c2=O)c1 [compound 267082] | > 10 | > 10 | > 10 | > 10 | > 10 | > 10 | > 10 | > 10 | – | – | – | –
N/N=C1\C=NN(c2ccccc2)C(=O)C1Cl (centres unmarked) [compound 257023] | > 10 | > 10 | > 10 | > 10 | > 10 | > 10 | > 10 | > 10 | > 10 | > 10 | – | –
CCN(CC)c1c(Cl)cnn(-c2cccc(C)c2)c1=O [compound 267076] | > 10 | > 10 | > 10 | > 10 | > 10 | > 10 | > 10 | > 10 | – | – | – | –
CCOc1cnn(-c2cccc(C)c2)c(=O)c1Cl [compound 267075] | – | > 10 | > 10 | > 10 | > 10 | > 10 | > 10 | – | – | – | > 10 | > 10
Cc1cccc(-n2ncc(I)cc2=O)c1 [compound 267086] | > 10 | > 10 | > 10 | > 10 | > 10 | 6.76 | > 10 | > 10 | – | – | – | –
O=C(O)CCC(=O)NCCCOc1cccc(-n2ncc(Br)c(Br)c2=O)c1 [compound 273633] | > 10 | > 10 | > 10 | > 10 | > 10 | > 10 | > 10 | > 10 | – | – | – | –
CCN(CC)c1cnn(-c2cccc(C)c2)c(=O)c1Cl [compound 267074] | > 10 | > 10 | > 10 | > 10 | > 10 | > 10 | > 10 | > 10 | – | – | – | –
Cc1cccc(-n2nc(OCCCNC(=O)CCC(=O)O)c(Cl)c(Cl)c2=O)c1 [compound 273632] | > 10 | > 10 | > 10 | > 10 | > 10 | > 10 | > 10 | > 10 | – | – | – | –
COc1ccc(=O)n(-c2cccc(C)c2)n1 [compound 257029] | > 10 | > 10 | > 10 | > 10 | > 10 | > 10 | > 10 | > 10 | – | – | – | –
